The record followed here is US20220388990A1, “INHIBITORS OF CYCLIN-DEPENDENT KINASES” (Kinnate Biopharma Inc., priority 2019, published 2022).

Molecules are shown by their SMILES. Some results are limits rather than exact numbers.

The target of the test is T1, CDK12 (Homo sapiens, UniProt Q9NYV4).
T1 construct: ProQinase (named as the party running the assay)
Briefly: Radiometric protein kinase assay (33PanQinase), assay condition 1, thiol-free conditions. It is filed as biochemical. Particulars: thiol-free conditions (1 mM TCEP), ATP at apparent Km. The protocol: Example 2 —Assay condition 1 (thiol-free conditions)
The IC50 profile of compounds was determined using protein kinase in a customized, thiol free assay. IC50 values were measured by testing 10 concentrations (1×10^−05 M to 3×10^−10 M) of each test compound in singlicate against each kinase of interest. Prior to testing, the 1×10^−03M stock solutions in column 2 of the master plates were subjected to a serial, semi-logarithmic dilution using 100% DMSO as a solvent. […] Column 1 and 7 were filled with 100% DMSO as controls. Subsequently, 2×10 microliter from each well of the serial diluted copy plates were aliquoted with a 96 channel pipettor into two identical sets of “compound dilution plates”. All plates were barcoded for automated identification and tracking purposes. IC50 values were measured by testing 10 concentrations (1×10^−05 M to 3×10^−10 M) of each compound in singlicate. All compounds were stored as powder until being solubilized in DMSO. Solubilized compounds were stored as 1×10^−02 M/100% DMSO stock solutions. Prior to the assay process, 90 microliters of H2O were added to each well of a set of compound dilution plates. To minimize potential precipitation, the H2O was added to each plate only a few minutes before the transfer of the compound solutions into the assay plates. Each plate was shaken thoroughly, resulting in compound dilution plates with a final of 10% DMSO. For each assay, 5 microliters of solution from each well of the compound dilution plates/10% DMSO were transferred into the assay plate. The final volume of the assay was 50 μl. All compounds were tested at 10 final assay concentrations in the range from 1×10^−05 M to 3×10^−10 M, in singlicate. The final DMSO concentration in the reaction cocktails was 1% in all cases. A radiometric protein kinase assay (33PanQinase® Activity Assay) was used for measuring the kinase activity of the protein kinase. All kinase assays were performed in 96-well FlashPlates™ from PerkinElmer (Boston, Mass., USA) in a 50 microliter reaction volume. The reaction cocktail was pipetted in four steps in the following order: 20 microliter of assay buffer (standard buffer) 5 microliter of ATP solution (in H2O) 5 microliter of test compound (in 10% DMSO) 20 microliter enzyme/subtrate mix. Each assay for the protein kinase contained 70 mM HEPES-NaOH pH 7.5, 3 mM MgCl2, 3 mM MnCl2, 3 microM Na-orthovanadate, 1 mM TCEP, 50 μg/ml PEG20000, ATP (corresponding to the apparent ATP-Km of the kinase, see Table A), [gamma-33P]-ATP (approx. 6×10×E5 cpm per well), with the protein kinase and relevant substrate being used in pre-determined amounts, depending on the kinase in question. For all experiments labeled as “Thiol-free”, all glutathione was exchanged from protein preparations so as to be removed from the assay and final buffer conditions contained no thiol- containing reagents. This was done so there would be no interference with the key cysteines in the proteins of interest.
For data analysis, the median value of the counts in column 1 (n=8) of each assay plate was defined as “low control”. This value reflects unspecific binding of radioactivity to the plate in the absence of a protein kinase but in the presence of the substrate. The median value of the counts in column 7 of each assay plate (n=8) was taken as the “high control”, i.e. full activity in the absence of any inhibitor. The difference between high and low control was taken as 100% activity. As part of the data evaluation the low control value from a particular plate was subtracted from the high control value as well as from all 80 “compound values” of the corresponding plate. The residual activity (in %) for each well of a particular plate was calculated by using the following formula:
Res. Activity (%)=100×[(cpm of compound−low control)/(high control−low control)] […]

T1 sequence (Q9NYV4 whole entry): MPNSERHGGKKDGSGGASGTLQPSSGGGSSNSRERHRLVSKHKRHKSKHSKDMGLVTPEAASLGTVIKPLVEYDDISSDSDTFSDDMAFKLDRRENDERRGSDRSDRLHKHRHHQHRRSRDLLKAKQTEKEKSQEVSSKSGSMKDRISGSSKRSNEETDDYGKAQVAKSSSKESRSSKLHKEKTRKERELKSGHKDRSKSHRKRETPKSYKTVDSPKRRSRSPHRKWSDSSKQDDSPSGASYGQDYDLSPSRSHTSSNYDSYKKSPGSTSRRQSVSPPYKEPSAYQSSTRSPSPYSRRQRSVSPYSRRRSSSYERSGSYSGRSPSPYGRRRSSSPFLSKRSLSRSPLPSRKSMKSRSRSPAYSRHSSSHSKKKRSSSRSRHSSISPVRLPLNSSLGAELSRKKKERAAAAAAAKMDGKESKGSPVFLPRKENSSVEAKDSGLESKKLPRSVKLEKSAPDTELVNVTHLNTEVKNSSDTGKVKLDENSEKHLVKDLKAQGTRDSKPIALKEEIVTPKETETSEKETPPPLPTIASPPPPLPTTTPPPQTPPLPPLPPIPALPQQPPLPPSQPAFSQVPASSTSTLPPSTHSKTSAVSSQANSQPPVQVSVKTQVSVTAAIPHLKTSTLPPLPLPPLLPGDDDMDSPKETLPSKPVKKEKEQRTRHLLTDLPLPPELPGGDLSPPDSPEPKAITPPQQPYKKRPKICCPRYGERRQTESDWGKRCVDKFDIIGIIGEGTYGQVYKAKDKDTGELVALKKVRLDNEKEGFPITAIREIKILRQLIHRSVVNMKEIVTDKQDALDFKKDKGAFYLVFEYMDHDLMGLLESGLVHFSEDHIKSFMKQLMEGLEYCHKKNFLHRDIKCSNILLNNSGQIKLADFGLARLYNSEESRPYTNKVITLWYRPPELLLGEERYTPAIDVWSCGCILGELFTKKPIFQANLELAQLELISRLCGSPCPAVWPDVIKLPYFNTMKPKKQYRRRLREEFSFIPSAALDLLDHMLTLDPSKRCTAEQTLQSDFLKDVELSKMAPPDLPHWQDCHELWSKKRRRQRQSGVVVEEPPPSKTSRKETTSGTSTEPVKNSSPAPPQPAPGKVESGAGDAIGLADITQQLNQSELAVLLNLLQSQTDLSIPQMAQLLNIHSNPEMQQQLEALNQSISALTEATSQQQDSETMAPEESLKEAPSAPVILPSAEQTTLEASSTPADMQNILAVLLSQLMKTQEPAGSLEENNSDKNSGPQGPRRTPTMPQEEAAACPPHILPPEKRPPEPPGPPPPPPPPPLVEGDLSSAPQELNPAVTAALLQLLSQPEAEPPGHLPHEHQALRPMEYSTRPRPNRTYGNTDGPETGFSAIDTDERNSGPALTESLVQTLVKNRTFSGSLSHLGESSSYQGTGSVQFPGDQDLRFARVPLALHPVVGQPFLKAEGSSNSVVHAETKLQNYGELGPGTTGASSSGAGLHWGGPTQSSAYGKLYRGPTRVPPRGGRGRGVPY
T1 sequence (O75909 whole entry partner): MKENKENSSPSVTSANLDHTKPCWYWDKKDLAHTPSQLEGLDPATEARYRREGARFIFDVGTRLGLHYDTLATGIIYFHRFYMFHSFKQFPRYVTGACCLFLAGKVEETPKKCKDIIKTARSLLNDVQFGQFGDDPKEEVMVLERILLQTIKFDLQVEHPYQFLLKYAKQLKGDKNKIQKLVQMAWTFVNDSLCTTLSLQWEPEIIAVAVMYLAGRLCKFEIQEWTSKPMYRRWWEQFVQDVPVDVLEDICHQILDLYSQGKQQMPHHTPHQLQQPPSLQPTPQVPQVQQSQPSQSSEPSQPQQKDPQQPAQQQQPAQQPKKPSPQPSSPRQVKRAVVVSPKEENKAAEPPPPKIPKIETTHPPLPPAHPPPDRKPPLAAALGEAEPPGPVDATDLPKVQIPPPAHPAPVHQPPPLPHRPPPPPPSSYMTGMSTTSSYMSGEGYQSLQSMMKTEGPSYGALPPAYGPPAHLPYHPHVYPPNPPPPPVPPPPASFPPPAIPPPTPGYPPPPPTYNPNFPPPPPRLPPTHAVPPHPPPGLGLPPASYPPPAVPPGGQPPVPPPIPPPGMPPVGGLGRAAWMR

For the compound `C=CC(=O)Nc1ccc2c(N3CC[C@@H](Nc4ncc(Cl)cn4)C3)ncnc2c1` [Example 1, (R)-N-(4-(3-((5-chloropyrimidin-2-yl)amino)pyrrolidin-1-yl)quinazolin-7-yl)acrylamide], the half-maximal inhibitory concentration (IC50) – broadly, the concentration at which inhibition is half-maximal – lay within 100 to 1000 nM. Take `C=CC(=O)Nc1ccc2c(N3CC[C@@H](Nc4ncc(C(F)(F)F)cn4)C3)ncnc2c1` [Example 2, (R)-N-(4-(3-((5-(trifluoromethyl)pyrimidin-2-yl)amino)pyrrolidin-1-yl)quinazolin-7-yl)acrylamide]: the half-inhibitory concentration (IC50) was ≤ 100 nM.

As to `C=CC(=O)Nc1ccc2c(N3CC[C@@H](Nc4ncc(Cl)c(OCC)n4)C3)ncnc2c1` [Example 3, (R)-N-(4-(3-((5-chloro-4-ethoxypyrimidin-2-yl)amino)pyrrolidin-1-yl)quinazolin-7-yl)acrylamide], the concentration for half-maximal inhibition (IC50) is ≤ 100 nM. For `C=CC(=O)Nc1ccc2c(N3CC[C@@H](Nc4ncc(Cl)c(OC)n4)C3)ncnc2c1` [Example 4, (R)-N-(4-(3-((5-chloro-4-methoxypyrimidin-2-yl)amino)pyrrolidin-1-yl)quinazolin-7-yl)acrylamide], the half-maximal inhibitory concentration (IC50) was ≤ 100 nM. With `C=CC(=O)Nc1ccc2c(N3CC[C@@H](Nc4ncc(Br)c(OC)n4)C3)ncnc2c1` [Example 5, (R)-N-(4-(3-((5-bromo-4-methoxypyrimidin-2-yl)amino)pyrrolidin-1-yl)quinazolin-7-yl)acrylamide], the IC50 is ≤ 100 nM. For `C=CC(=O)Nc1ccc2c(N3CC[C@@H](Nc4ncc(C(F)(F)F)c(N)n4)C3)ncnc2c1` [Example 6, (R)-N-(4-(3-((4-amino-5-(trifluoromethyl)pyrimidin-2-yl)amino)pyrrolidin-1-yl)quinazolin-7-yl)acrylamide], the IC50 is ≤ 100 nM. In the case of `C=CC(=O)Nc1ccc2c(N3CC[C@@H](Nc4ncc(Cl)c(Oc5ccccc5)n4)C3)ncnc2c1` [Example 7, (R)-N-(4-(3-((5-chloro-4-phenoxypyrimidin-2-yl)amino)pyrrolidin-1-yl)quinazolin-7-yl)acrylamide], the IC50 lay within 100 to 1000 nM. Regarding `C=CC(=O)Nc1ccc2c(N3CC[C@@H](Nc4ncc5cc(F)ccc5n4)C3)ncnc2c1` [Example 8, (R)-N-(4-(3-((6-fluoroquinazolin-2-yl)amino)pyrrolidin-1-yl)quinazolin-7-yl)acrylamide], the concentration for half-maximal inhibition (IC50) was ≤ 100 nM. On to `C=CC(=O)Nc1ccc2c(N3CC[C@@H](Nc4ncc(Cl)c(C(F)(F)F)n4)C3)ncnc2c1` [Example 9, (R)-N-(4-(3-((5-chloro-4-(trifluoromethyl)pyrimidin-2-yl)amino)pyrrolidin-1-yl)quinazolin-7-yl)acrylamide], for which the IC50 was ≤ 100 nM. Consider `C=CC(=O)Nc1ccc2c(N3CC[C@@H](Nc4ncc(C5CC5)cn4)C3)ncnc2c1` [Example 10, (R)-N-(4-(3-((5-cyclopropylpyrimidin-2-yl)amino)pyrrolidin-1-yl)quinazolin-7-yl)acrylamide], for which the IC50 was ≤ 100 nM. For `C=CC(=O)Nc1ccc2c(N3CC[C@@H](Nc4ncc5sccc5n4)C3)ncnc2c1` [Example 11, (R)-N-(4-(3-(thieno [3,2-d]pyrimidin-2-ylamino)pyrrolidin-1-yl)quinazolin-7-yl)acrylamide], the IC50 is ≤ 100 nM. In the case of `C=CC(=O)Nc1ccc2c(N3CC[C@@H](Nc4ncc(C#N)cn4)C3)ncnc2c1` [Example 12, (R)-N-(4-(3-((5-cyanopyrimidin-2-yl)amino)pyrrolidin-1-yl)quinazolin-7-yl)acrylamide], the IC50 is ≤ 100 nM. Take `C=CC(=O)Nc1ccc2c(N3CC[C@@H](Nc4ncc5ccccc5n4)C3)ncnc2c1` [Example 13, (R)-N-(4-(3-(quinazolin-2-ylamino)pyrrolidin-1-yl)quinazolin-7-yl)acrylamide]: the IC50 is ≤ 100 nM. Turning to `C=CC(=O)Nc1ccc2c(N3CC[C@@H](Nc4ncc(Cl)c(NC)n4)C3)ncnc2c1` [Example 14, (R)-N-(4-(3-((5-chloro-4-(methylamino)pyrimidin-2-yl)amino)pyrrolidin-1-yl)quinazolin-7-yl)acrylamide], the IC50 is ≤ 100 nM.

On to `C=CC(=O)Nc1ccc2c(N3CC[C@@H](Nc4ncc(C(F)(F)F)c(NC)n4)C3)ncnc2c1` [Example 15, (R)-N-(4-(3-((4-(methylamino)-5-(trifluoromethyl)pyrimidin-2-yl)amino)pyrrolidin-1-yl)quinazolin-7-yl)acrylamide], for which the 50% inhibitory concentration (IC50) is ≤ 100 nM. Consider `C=CC(=O)Nc1ccc2c(N3CC[C@@H](Nc4ncc5ccncc5n4)C3)ncnc2c1` [Example 16, (R)-N-(4-(3-(pyrido [3,4-d]pyrimidin-2-ylamino)pyrrolidin-1-yl)quinazolin-7-yl)acrylamide], for which the IC50 is ≤ 100 nM. `C=CC(=O)Nc1ccc2c(N3CC[C@@H](Nc4ncc(Br)cn4)C3)nccc2c1` [Example 18, (R)-N-(1-(3-((5-bromopyrimidin-2-yl)amino)pyrrolidin-1-yl)isoquinolin-6-yl)acrylamide]: the half-maximal inhibitory concentration (IC50) is ≤ 100 nM.

In the case of `C=CC(=O)Nc1ccc2c(N3CC[C@@H](Nc4ncc(Cl)c(OCC)n4)C3)nccc2c1` [Example 19, (R)-N-(1-(3-((5-chloro-4-ethoxypyrimidin-2-yl)amino)pyrrolidin-1-yl)isoquinolin-6-yl)acrylamide], the concentration for half-maximal inhibition (IC50) was ≤ 100 nM. Take `C=CC(=O)Nc1ccc2c(N3CC[C@@H](Nc4ncc(Br)cn4)C3)nc(N3CCOCC3)nc2c1` [Example 20, (R)-N-(4-(3-((5-bromopyrimidin-2-yl)amino)pyrrolidin-1-yl)-2-morpholinoquinazolin-7-yl)acrylamide]: the half-maximal inhibitory concentration (IC50) was ≤ 100 nM. To `C=CC(=O)Nc1ccc2c(N3CC[C@@H](Nc4ncc(Br)cn4)C3)nc(C)nc2c1` [Example 21, (R)-N-(4-(3-((5-bromopyrimidin-2-yl)amino)pyrrolidin-1-yl)-2-methylquinazolin-7-yl)acrylamide] belongs ≤ 100 nM; to `C=CC(=O)Nc1ccc2c(N3CC[C@@H](Nc4ncc(C#N)cn4)C3)nc(N3CCOCC3)nc2c1` [Example 22, (R)-N-(4-(3-((5-cyanopyrimidin-2-yl)amino)pyrrolidin-1-yl)-2-morpholinoquinazolin-7-yl)acrylamide], 100 to 1000 nM. Regarding `C=CC(=O)Nc1ccc2c(N3CC[C@@H](Nc4ncc(C#N)cn4)C3)nc(N3CCN(C)CC3)nc2c1` [Example 24, (R)-N-(4-(3-((5-cyanopyrimidin-2-yl)amino)pyrrolidin-1-yl)-2-(4-methylpiperazin-1-yl)quinazolin-7-yl)acrylamide], the IC50 was ≤ 100 nM.

On to `C=CC(=O)Nc1ccc2c(N3CC[C@@H](Nc4ncc(Br)cn4)C3)ncnc2c1` [Example 25, (R)-N-(4-(3-((5-bromopyrimidin-2-yl)amino)pyrrolidin-1-yl)quinazolin-7-yl)acrylamide], for which the concentration for half-maximal inhibition (IC50) is ≤ 100 nM. To `C=CC(=O)Nc1ccc2c(N3CC[C@@H](Nc4ncc(C#N)cn4)C3)nccc2c1` [Example 26, (R)-N-(1-(3-((5-cyanopyrimidin-2-yl)amino)pyrrolidin-1-yl)isoquinolin-6-yl)acrylamide] belongs ≤ 100 nM. In the case of `C=CC(=O)N(C)c1ccc2c(N3CC[C@@H](Nc4ncc(Br)cn4)C3)nccc2c1` [Example 27, (R)-N-(1-(3-((5-bromopyrimidin-2-yl)amino)pyrrolidin-1-yl)isoquinolin-6-yl)-N-methylacrylamide], the IC50 is ≤ 100 nM. Next, `C/C=C/C(=O)Nc1ccc2c(N3CC[C@@H](Nc4ncc(Br)cn4)C3)nccc2c1` [Example 28, (R,E)-N-(1-(3-((5-bromopyrimidin-2-yl)amino)pyrrolidin-1-yl)isoquinolin-6-yl)but-2-enamide]: ≤ 100 nM. Turning to `C=CC(=O)Nc1ccc2c(N3CC[C@@H](Nc4ncc(C#N)cn4)C3)nc(N3CCCC3)nc2c1` [Example 29, (R)—N-(4-(3-((5-cyanopyrimidin-2-yl)amino)pyrrolidin-1-yl)-2-(pyrrolidin-1-yl)quinazolin-7-yl)acrylamide], the IC50 is 100 to 1000 nM.
